Where a SMILES comes first, the peptide text is derived from it. [ ]: non-standard residue; d: D form. dTrp(2-Me) = Cc1[nH]c2ccccc2c1C[C@@H](N)C(=O)O; Trp(2-Me) = Cc1[nH]c2ccccc2c1C[C@H](N)C(=O)O; d2Nal = N[C@H](Cc1ccc2ccccc2c1)C(=O)O; 3Amb = NCc1cccc(C(=O)O)c1; GABA = NCCCC(=O)O
Key:
[1] = Compound was evaluated for the half-life in rats; format: ADME, organism-based; conditions: rat, in vivo
Rattus norvegicus [2] = species: Rattus norvegicus; assay: compound was evaluated for GH release in the rat; format: functional, organism-based
[3] = Compound was evaluated for the systemic clearance rate in rats; format: ADME, organism-based; conditions: rat, in vivo; read-out: Clearance rate
Rattus norvegicus [4] = species: Rattus norvegicus; assay: compound was evaluated for GH release in the rat pituitary cell culture assay; format: functional; conditions: Pituitary gland cell
[5] = target: Growth hormone secretagogue receptor type 1 (Homo sapiens, UniProt Q92847); assay: Inhibitory concentration (biotinylated probe) is evaluated for [35S]- MK-0677 binding
Sequence of Growth hormone secretagogue receptor type 1 (Q92847 whole entry): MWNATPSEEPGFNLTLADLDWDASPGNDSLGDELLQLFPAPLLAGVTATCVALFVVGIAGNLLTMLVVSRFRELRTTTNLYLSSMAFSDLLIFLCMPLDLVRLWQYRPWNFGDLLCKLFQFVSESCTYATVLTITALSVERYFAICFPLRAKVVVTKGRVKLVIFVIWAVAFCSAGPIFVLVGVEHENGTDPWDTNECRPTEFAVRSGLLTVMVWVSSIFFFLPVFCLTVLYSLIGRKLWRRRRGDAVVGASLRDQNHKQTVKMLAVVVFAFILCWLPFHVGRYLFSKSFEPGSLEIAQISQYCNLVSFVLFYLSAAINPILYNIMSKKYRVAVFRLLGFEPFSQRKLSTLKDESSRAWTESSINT

Rattus norvegicus [6] = species: Rattus norvegicus; assay: Compound measured for stimulated GH release; format: functional, organism-based
Oxytocin receptor = target: T1, Oxytocin receptor (Homo sapiens, UniProt P30559); assay: Antagonistic activity against Oxytocin receptor; format: functional
T1 sequence (P30559 whole entry): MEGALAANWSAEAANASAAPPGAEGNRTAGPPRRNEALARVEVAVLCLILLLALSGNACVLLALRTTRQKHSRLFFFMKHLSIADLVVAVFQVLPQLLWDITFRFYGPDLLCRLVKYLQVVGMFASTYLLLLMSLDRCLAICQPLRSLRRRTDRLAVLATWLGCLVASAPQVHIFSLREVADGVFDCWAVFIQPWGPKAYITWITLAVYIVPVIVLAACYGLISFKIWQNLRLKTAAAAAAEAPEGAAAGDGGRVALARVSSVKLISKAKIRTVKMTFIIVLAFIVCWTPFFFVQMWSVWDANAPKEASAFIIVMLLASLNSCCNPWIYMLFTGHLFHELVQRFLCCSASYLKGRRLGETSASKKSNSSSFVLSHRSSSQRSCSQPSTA

Rattus norvegicus [7] = species: Rattus norvegicus; assay: In vitro efficacy was evaluated for growth hormone release
Homo sapiens = species: Homo sapiens; assay: compound was evaluated for GH release; format: functional, organism-based
[8] = Oral bioavailability measured in dogs; format: ADME, organism-based, Canis lupus familiaris; conditions: dog, in vivo
[9] = Half-life period measured in dogs; format: ADME, organism-based, Canis lupus familiaris; conditions: dog, in vivo
Canis familiaris [10] = species: Canis familiaris; assay: Compound is evaluated for elevated GH in beagles with peroral dose; format: functional; conditions: Canis lupus familiaris, po
Canis familiaris [11] = assay: Compound is evaluated for elevated GH in beagles with intravenous dose; format: functional; conditions: Canis lupus familiaris
Sus scrofa [12] = species: Sus scrofa; assay: Limited capacity to porcine pituitary membranes was evaluated; format: functional
Rattus norvegicus [13] = species: Rattus norvegicus; assay: In Vitro evaluation for growth hormone release from the pituitary incubates; format: functional
Rattus norvegicus [14] = species: Rattus norvegicus; assay: The concentration of binding sites was evaluated; format: functional
Rattus norvegicus [15] = species: Rattus norvegicus; assay: Compound was evaluated for binding affinity, which binds with high affinity to membranes isolated from rat hypothalamus; format: functional
Rattus norvegicus [16] = assay: In Vivo efficacy was evaluated for growth hormone release; format: functional, organism-based
Canis familiaris [17] = assay: Loss of body weight in dog is evaluated after compound was administered perorally to dog at a dose 5 mg/kg, once daily (control (wt) = 1.13+/-0.19); format: functional, Canis lupus familiaris; conditions: route oral
Sus scrofa [18] = species: Sus scrofa; assay: Compound was measured for IGF-1 increases in swine on days 4, 7, 10, and 14 approximately; format: functional
Sus scrofa [19] = species: Sus scrofa; assay: Compound was measured for elevated mean plasma IGF-1 (insulin like growth factor) concentrations in Swine; format: functional, organism-based
[20] = The intrinsic potency studied extensively in animals; format: functional
[21] = Compound was evaluated percentage of Oral bioavailability in dogs; format: ADME, organism-based, Canis lupus familiaris; conditions: dog, in vivo
Rattus norvegicus [22] = species: Rattus norvegicus; assay: Compound was tested for GH releasing from cultured rat pituitary cells (maximal increase in 15 min); format: functional, Pituitary gland cell
[23] = In vitro efficacy was evaluated for growth hormone release
[24] = Clearance rate was evaluated in rats; format: ADME, organism-based; conditions: rat, in vivo; read-out: Clearance rate
[25] = Half-life was evaluated in rats; format: ADME, organism-based; conditions: rat, in vivo
Rattus norvegicus [26] = assay: Compound was measured as maximal GH release which showed iv potency and efficacy; format: functional, organism-based
Rattus norvegicus [27] = assay: Compound was tested for effective dose rquired for GH release following iv administration to 4-week old anesthetized Sprague-Dawley rats; format: functional
Rattus norvegicus [28] = assay: Compound was evaluated for GH releasing properties after iv administration to infant rats; format: functional, organism-based
Rattus norvegicus [29] = assay: Potency measured in an anesthetized rat model; format: functional, organism-based
Rattus norvegicus [30] = species: Rattus norvegicus; assay: (§1) compound was evaluated for GH release in rat; format: functional, organism-based
Rattus norvegicus [31] = species: Rattus norvegicus; assay: as §1; format: functional
Rattus norvegicus [32] = assay: Compound was measured for elevated levels of GH release in infant rats after administration subcutaneously at 300 ug/kg; format: functional, organism-based

## C[C@H](NC(=O)[C@@H](Cc1ccc2ccccc2c1)NC(=O)[C@@H](C)N)C(=O)N[C@@H](Cc1c[nH]c2ccccc12)C(=O)N[C@H](Cc1ccccc1)C(=O)N[C@@H](CCCCN)C(N)=O [PRALMORELIN] (H-[dA][d2Nal]AW[dF]K-NH2)
[1]
  half-life: 9 min
Rattus norvegicus [2]
  EC50: 3 nM
[3]
  clearance: 23 mL/min/kg

## CCOC(=O)[C@]1(Cc2ccccc2)CCCN(C(=O)[C@@H](Cc2c[nH]c3ccccc23)NC(=O)C(C)(C)N)C1
Rattus norvegicus [4]
  EC50: 1.6 nM

## CC(C)(N)C(=O)N[C@H](COCc1ccccc1)C(=O)N1CCC2(CC1)CN(S(=O)(=O)CC(=O)NCCCCCCNC(=O)CCCC[C@@H]1SCC3NC(=O)NC31)c1ccccc12 (some centres not stated)
[5]
  IC50: 0.2 nM
Rattus norvegicus [6]
  EC50: 2.5 nM

## C[C@@H](O)CN1CCC[C@@H](C(=O)NC2CC3CCC2(CS(=O)(=O)N2CCC4(CCc5ccccc54)CC2)C3(C)C)C1 (some centres not stated)
Oxytocin receptor
  IC50: 130 nM
Rattus norvegicus [7]
  EC50: 90 nM

## C[C@@H]1NC(=O)[C@H](Cc2ccc3ccccc3c2)NC(=O)[C@@H](N)CCCCNC(=O)CC[C@H](C(=O)N[C@@H](CCCCN)C(N)=O)NC(=O)[C@@H](Cc2ccccc2)NC(=O)[C@@H](Cc2c[nH]c3ccccc23)NC1=O
Homo sapiens
  EC50: 0.43 nM

## CC(C)(N)C(=O)N[C@H](COCc1ccccc1)C(=O)N1CCC2(CC1)CN(S(C)(=O)=O)c1ccccc12 [IBUTAMOREN]
[8]
  bioavailability: > 60%
[9]
  half-life: 282 min
Canis familiaris [10]
  MED: 0.125 mg/kg
Canis familiaris [11]
  MED: 0.025 mg/kg
Sus scrofa [12]
  Bmax (fM (mg of protein)-1): 8
Rattus norvegicus [13]
  EC50: 1.3 nM
Rattus norvegicus [14]
  Bmax: 8 fmol/mg
Rattus norvegicus [15]
  Kd: 0.17 nM

## CC(C)(N)CC(=O)NC1CCc2ccccc2N(Cc2ccc(-c3ccccc3C(=O)O)cc2)C1=O (configuration not stated)
Rattus norvegicus [16]
  EC50: 3000 nM

## CC(C)(N)C(=O)N[C@H](CCCc1ccccc1)C(=O)N1CCC2(CC1)CN(S(C)(=O)=O)c1ccccc12
Canis familiaris [17]
  Body weight: 0.21 kg
Sus scrofa [18]
  Increase: 60%
Sus scrofa [19]
  Plasma concentration: 62%
[20]
  EC50: 1.5 nM

## CC(C)(N)CC(=O)N[C@@H]1CCc2ccccc2N(Cc2ccc(-c3ccccc3-c3nn[nH]n3)cc2)C1=O
[21]
  bioavailability: < 5%
Rattus norvegicus [22]
  Max: 300%
[23]
  EC50: 60 nM

## C[C@H](NC(=O)[C@@H](Cc1c[nH]c2ccccc12)NC(=O)CCc1c[nH]cn1)C(=O)N[C@@H](Cc1c[nH]c2ccccc12)C(=O)N[C@H](Cc1ccccc1)C(=O)N[C@H](CO)CCCCN
[24]
  clearance: 39 mL/min/kg
[25]
  half-life: 11 min
Rattus norvegicus [26]
  EC50: 5 nM

## Cc1ccc(S(=O)(=O)Nc2ccc3c(c2)CCN(C(=O)[C@@H](Cc2c[nH]c4ccccc24)NC(=O)C(C)(C)N)C3)cc1
Rattus norvegicus [4]
  EC50: 3 nM
Rattus norvegicus [27]
  ED50: > 10 mg/kg

## Cc1[nH]c2ccccc2c1C[C@@H](NC(=O)CCCN)C(=O)N[C@H](Cc1ccc2ccccc2c1)C(=O)N[C@@H](Cc1ccccc1)C(=O)N[C@@H](CCCCN)C(N)=O (H-[GABA][dTrp(2-Me)][d2Nal]FK-NH2)
Rattus norvegicus [28]
  Concentration: 198 ng/mL

## O=C(N[C@H](Cc1ccc2ccccc2c1)C(=O)N[C@@H](CO)Cc1c[nH]c2ccccc12)C1CCNCC1
Rattus norvegicus [4]
  EC50: 10.6 nM

## C[C@H](NC(=O)[C@@H](Cc1c[nH]c2ccccc12)NC(=O)[C@@H](N)Cc1c[nH]cn1)C(=O)N[C@@H](Cc1c[nH]c2ccccc12)C(=O)N[C@@H](CN[C@H](CO)CCCCN)Cc1ccccc1
Rattus norvegicus [29]
  EC50: 0.5 nM

## C[C@H](N)C(=O)N[C@@H](Cc1c[nH]cn1)C(=O)N[C@H](Cc1ccc2ccccc2c1)C(=O)N[C@@H](C)C(=O)N[C@@H](Cc1c[nH]c2ccccc12)C(=O)N[C@H](Cc1ccccc1)C(=O)N[C@@H](CCCCN)C(N)=O (H-AH[d2Nal]AW[dF]K-NH2)
Rattus norvegicus [30]
  EC50: 6 nM

## Cc1[nH]c2ccccc2c1C[C@@H](NC(=O)[C@@H](N)Cc1c[nH]cn1)C(=O)N[C@@H](C)C(=O)N[C@@H](Cc1c[nH]c2ccccc12)C(=O)N[C@H](Cc1ccccc1)C(=O)N[C@@H](CCCCN)C(N)=O [EXAMORELIN] (H-H[dTrp(2-Me)]AW[dF]K-NH2)
Rattus norvegicus [31]
  Activity: 104 ng/mL

## Cc1[nH]c2ccccc2c1C[C@H](NC(=O)[C@@H](Cc1c(C)[nH]c2ccccc12)NC(=O)[C@@H](Cc1c(C)[nH]c2ccccc12)NC(=O)CCCN)C(=O)N[C@@H](CCCCN)C(N)=O (H-[GABA][dTrp(2-Me)][dTrp(2-Me)][Trp(2-Me)]K-NH2)
Rattus norvegicus [32]
  Concentration: 200 ng/mL

## NCCCC[C@H](NC(=O)[C@@H](Cc1ccccc1)NC(=O)[C@@H](Cc1ccc2ccccc2c1)NC(=O)c1cccc(CN)c1)C(N)=O (H-[3Amb][d2Nal][dF]K-NH2)
Rattus norvegicus [4]
  EC50: 7 nM

Reference: ChEMBL document CHEMBL1131057, “Peptidomimetic growth hormone secretagogues. Design considerations and therapeutic potential” (J Med Chem, 1998)
